Data published in US7554012B2, “Plants and plant cells exhibiting resistance to AMPA, and methods for making the same” (priority 1998, dated 2009).
Values joined by “and” are separate entries in the source; they are usually repeats but may differ in a detail not shown here. Identical values can stand only once.

What was measured:
[1] = test system: E. coli GB993; assay: Cell growth in MOPS medium with AMPA; type: cell-based; conditions: 0.2 mM AMPA, growth period 54 hrs
Procedure: (§1) The phn operon is induced when E. coli is grown in media lacking or limited in a phosphate source. Therefore, E. coli GB993 was compared to the parental JM101 strain when grown in MOPS minimal media. GB993 and its mpu− parent strain, JM101, were grown under identical conditions, varying only the amount of phosphate available or supplemented with AMPA. 50 ml cultures were grown in duplicate in 250 ml sidearm-Erlenmeyer flasks with continuous shaking at 37° C. in MOPS medium (5 mls of 10×MOPS salts, 0.5 ml 1 mg/ml thiamin, 0.5 ml 20% glucose, to 50 mls with dH2O) containing 0.1 or 5 mM phosphate, or 0.1 mM phosphate supplemented with approximately 0.2 mM AMPA, pH 7.0. The cultures were generally grown to about 220 Klett units and the cells were pelleted by centrifugation, resuspended in 1.5 mls of 10 mM Tris/1 mM DTT, and lysed with two passes through a French press at […]. Lysates were centrifuged to remove debris and the supernatant passed through a G-50 column equilibrated with 50 mM Tris pH 7.0.

[2] = test system: Achromobacter sp. strain LBAA; assay: Glyphosate degradation pathway in resting cells
Procedure: The glyphosate degradation pathway was characterized in resting cells of glyphosate-grown Achromobacter sp. strain LBAA according to the following procedure. Cells from a 100 ml culture of LBAA, grown in DF3S medium containing glucose, gluconate and citrate as carbon sources and with thiamine and Yeast Extract (0.01%) to supply trace requirements and with glyphosate at 0.2 mM as a phosphorous source, were harvested at a cell density of 200 Klett units, washed twice with 20 ml of DF3S medium and the equivalent of 20 ml of cells were resuspended in […] of the same medium containing [^14C]glyphosate (2.5 ml of 52 mCi/mmol, Amersham; CFA.745). The cell mix was incubated at 30° C. with shaking and 20 ml samples were withdrawn at various intervals. The samples were centrifuged to separate the cells from the broth supernatant. Both the supernatant and cell pellets were analyzed by HPLC.
Samples prepared in this way were analyzed by strong anion exchange (SAX) HPLC with radioisotope label detection to determine their levels of [^14C]-AMPA and N-acetyl-[^14C]-AMPA. Samples were injected using a Waters WISP autoinjector. Chromatographic profiles and quantitative data were collected using MACS2, Monsanto's automated chromatography data collection system. A Spherisorb S5 SAX, 250 mm×10 mm column, or an Alltech 5 micron, 250 mm×10 mm SAX column was used for the analyses. Solvents used were designated as solution A and solution B. Solution A contained 0.005M KH2PO4 adjusted to pH 2.0 with H3PO4 in 4% methanol. Solution B contained 0.10 M KH2PO4 adjusted to pH 2.0 with H3PO4 in 4% methanol. Each sample run time consisted of a step gradient program with an eluent flow rate of 3 ml per minute and a scintillation fluid (tradename ATOMFLOW, No. NEN-995 obtained from Packard Instruments) flow rate of 9 ml per minute. The HPLC solvent profile for distinguishing [^14C]-AMPA from N-acetyl-[^14C]-AMPA in each sample analyzed was represented by 100% solvent A at times zero through 5 minutes, then solvent B at 100% at time 5 minutes through 15 minutes, then 100% solvent A through 20 minutes at which time the column is prepared to receive another sample.
Cell pellets were first resuspended in DF3S medium made acidic by addition of 0.65N HCl, boiled for 5 minutes, then centrifuged briefly to provide a solution phase for HPLC analysis. Supernatants were treated similarly prior to HPLC analysis.
The GOX mediated glyphosate degradation pathway was elucidated further in a subsequent experiment where the metabolism of [^14C]AMPA was compared to that of [^14C]glyphosate as indicated above in resting cells harvested at 165 Klett units and resuspended at the equivalent of 15 ml cells per 100 ml DF3S medium. The samples were analyzed by HPLC and consisted of whole cultures acidified and treated as described above.

[3] = test system: E. coli JM101; assay: Cell growth in MOPS medium with AMPA; type: cell-based; set-up: key: — indicates no measurable growth; conditions: 0.2 mM AMPA, growth period 54 hrs
Procedure: as §1

[4] = test system: male gametes; conditions: under optimal conditions; cited from earlier work
[5] = test system: recombinant cotton line 4268 (GOX/PhnO); assay: [^14C]-glyphosate metabolism in cotton line 4268; type: in vivo, cotton (Gossypium hirsutum L.); conditions: GOX/PhnO Plants
Procedure: The metabolism of [^14C]-glyphosate in recombinant cotton lines 4268 (GOX/PhnO) and 3753 (EPSPS/GOX) was also studied. Plants in this study were treated as indicated above for cotton line 4416, by applying droplets of ROUNDUP ULTRA fortified with [^14C]-glyphosate to a single leaf on each plant at the three to four leaf stage. Treated leaves were harvested and rinsed with water, then ground and extracted, and extracts were analyzed by HPLC as described above for the presence of [^14C]-glyphosate, [^14C]-AMPA, and N-acetyl-[^14C]-AMPA. New growth, including the meristem and new leaves that emerged following application were also extracted and analyzed.

[6] = test system: R2 glyphosate tolerant wheat plants; assay: [^14C]-glyphosate metabolism in wheat plants; type: in vivo, Triticum aestivum cv Bobwhite
Procedure: R2 seed was germinated from a number of different glyphosate tolerant lines to produce R2 glyphosate tolerant plants to which [^14C]-glyphosate was applied as described above. Plant leaf and stem tissues were harvested at 48 hours after glyphosate application, and water soluble compounds were extracted as described above and analyzed by HPLC as in example 2 for the presence of [^14C]-glyphosate metabolites. The total area under the [^14C] isotope labeled peaks eluting from the column was summed to provide a baseline of 100% [^14C]-compound identification for each sample analyzed.

[7] = whole cultures exposed two hours
[8] = EPSPS + PhnO + GOX, Plant Line 25462
[9] = EPSPS + PhnO + GOX, Plant Line 26281
[10] = EPSPS + PhnO + GOX, Plant Line 28598
[11] = non-recombinant Bobwhite plants

NCP(=O)(O)O [AMPA, N-aminomethyl phosphonic acid]
Harvest Density [1]: 185 Klett Units
label as AMPA [2, 7]: 59%
label in the 13.2 minute peak (N-acetyl-AMPA) [2, 7]: 18%
label in the methylamine/N-acetyl-methylamine peak [2, 7]: 15%
Harvest Density [3]: —

N-phosphono-methyl-glycine [Glyphosate]
male gametes killed [4]: about 95%
% [^14C] metabolite in Glyphosate Treated Leaf Extract: AMPA ([5]; listed as [^14C]-Glyphosate): 3.2% and 5.7% and 3.0% and 4.8%
% [^14C] metabolite in Glyphosate Treated Leaf Extract: Glyphosate ([5]; listed as [^14C]-Glyphosate): 54.4% and 58.3% and 76.7% and 63.9%
% [^14C] metabolite in New Growth Extract: AMPA ([5]; listed as [^14C]-Glyphosate): 1.2% and 1.0% and 1.5%
% [^14C] metabolite in New Growth Extract: Glyphosate ([5]; listed as [^14C]-Glyphosate): 0.8% and 1.1% and 3.4%
% [^14C] metabolite in New Growth Extract: N-Acetyl-AMPA ([5]; listed as [^14C]-Glyphosate): 94.7% and 91.0% and 89.9% and 91.5%
% [^14C] metabolite in New Growth Extract: N-Acetyl-AMPA ([5]; listed as [^14C]-glyphosate): 90-95%
glyphosate found within the cell ([2]; two hours incubation): About 3%
material co-eluting with the methylamine standard, of initial radioactivity in the cell contents ([2]; two hours incubation): about 1.5%
material co-eluting with the methylamine standard, of initial radioactivity in the supernatant ([2]; two hours incubation): about 5%
radioactivity in the glyphosate peak remaining in the supernatant, of the initial levels ([2]; two hours incubation): about 33%
label as AMPA [2, 7]: 12.5%
label as glyphosate [2, 7]: 30%
label in the 13.2 minute peak (N-acetyl-AMPA) [2, 7]: 30%
label in the methylamine/N-acetyl-methylamine peak [2, 7]: 25%
Acetyl-[^14C]-AMPA, of summed [^14C] peaks [6, 8]: 0%
[^14C]-Glyphosate, of summed [^14C] peaks [6, 8]: 48% and 44% and 54%
Acetyl-[^14C]-AMPA, of summed [^14C] peaks [6, 9]: 17% and 13% and 7%
[^14C]-AMPA, of summed [^14C] peaks [6, 9]: 14% and 11% and 7%
[^14C]-Glyphosate, of summed [^14C] peaks [6, 9]: 48% and 64% and 38%
[^14C]-Glyphosate, of summed [^14C] peaks ([6]; EPSPS + PhnO + GOX, Plant Line 27249): 6% and 14% and 5%
Acetyl-[^14C]-AMPA, of summed [^14C] peaks [6, 10]: 5%
[^14C]-AMPA, of summed [^14C] peaks [6, 10]: 7%
[^14C]-Glyphosate, of summed [^14C] peaks [6, 10]: 20% and 25%
[^14C]-Other, of summed [^14C] peaks [6, 10]: 68% and 63%
Acetyl-[^14C]-AMPA, of summed [^14C] peaks ([6]; EPSPS, Plant Line 24756): 1% and 0%
[^14C]-AMPA, of summed [^14C] peaks ([6]; EPSPS, Plant Line 24756): 25% and 46%
[^14C]-Glyphosate, of summed [^14C] peaks ([6]; EPSPS, Plant Line 24756, 48 hours after application): 43% and 53%
Acetyl-[^14C]-AMPA, of summed [^14C] peaks ([6]; EPSPS, Plant Line 25397): 0% and 1.2%
[^14C]-AMPA, of summed [^14C] peaks ([6]; EPSPS, Plant Line 25397): 38% and 19% and 20%
[^14C]-Glyphosate, of summed [^14C] peaks ([6]; EPSPS, Plant Line 25397): 61% and 37% and 64%
Acetyl-[^14C]-AMPA, of summed [^14C] peaks [6, 11]: 0%
[^14C]-AMPA, of summed [^14C] peaks [6, 11]: 26% and 15% and 24%
